From US20240246941A1, “SUBSTITUTED 4-(3-AMINOPROP-1-YL)AMINOQUINOLINE ANALOGS AS MODULATORS OF MELANOMA-ASSOCIATED ANTIGEN 11 UBIQUITIN LIGASE” (ST. JUDE CHILDREN'S RESEARCH HOSPITAL, INC., priority 2020, published 2024)

biological target: interaction between GST-MAGEA11 MHD and FAM-PCF11_4 peptide (MAGE-A11:PCF11) (Homo sapiens (Human), UniProt P43364); test: TR-FRET dose response competition assay for disruption of MAGE-A11:PCF11 binding; settings: Dose response TR-FRET screening of nine scaffold groups against MAGE-A11:PCF11; read-out: consensus IC50
Sequence (P43364 218-429): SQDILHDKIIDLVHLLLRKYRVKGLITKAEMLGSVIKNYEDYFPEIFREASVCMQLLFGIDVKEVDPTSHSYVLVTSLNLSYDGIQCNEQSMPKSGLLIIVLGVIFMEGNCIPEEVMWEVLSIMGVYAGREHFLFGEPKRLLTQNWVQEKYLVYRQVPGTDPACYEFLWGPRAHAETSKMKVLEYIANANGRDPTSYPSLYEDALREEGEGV
Description: TR-FRET Assays and High-throughput Screen. Terbium-anti-GST antibody, 1 M Tris pH 7.5 1 M MgCl2 and 1 M DTT were purchased from Invitrogen (Carlsbad, CA), BSA was purchased from Sigma (St. Louis, MO). Dimethyl sulfoxide (DMSO) was purchased from Fisher Scientific (Pittsburgh, PA). Black 384-well low volume plates and 384-well polypropylene compound plates were purchased from Corning Incorporated (Tewksbury, MA). The St. Jude FDA drug and Bioactive library (11,293 chemicals), Drug-like library (10,073 chemicals) and Lead-like library (10,041 chemicals) were custom assembled and purchased from commercial sources including Sigma, Microsource (Gaylordsville, CT), selleckchem (Houston, TX), ChemDiv (San Diego, CA), ChemBridge (San Diego, CA), Enamine (Monmouth Jct., NJ), and Life Chemicals (Niagara-on-the-Lake, ON, Canada). They were arrayed (10 mM in DMSO) in 384-well polypropylene compound plates with columns 1, 2, 13 and 14 empty which were reserved for controls.
The TR-FRET assay buffer with a formula of 50 mM Tris pH 7.5, 20 mM MgCl2, 0.1 mg/ml BSA and 1 mM DTT was freshly prepared before each experiment. All TR-FRET assays were performed in black 384-well plates with 20 μl/well assay volume in the TR-FRET assay buffer at room temperature (approximately 25° C.). All peptides or compounds were solubilized in DMSO. To test the competitive activity of peptides or compounds against the interaction between GST-MAGEA11 MHD and FAM-PCF11_4 peptide, 10 μl/well peptide or compound at specified concentration was dispensed into a black 384-well low volume plate, followed by 5 μl/well FAM-PCF11_4 (800 nM), 5 μl/well Tb-anti-GST (20 nM) and GST-MAGEA11 MHD (20 nM). The assay components in each well was then mixed by shaking the plate on an IKA MTS 2/4 digital microtiter plate shaker (IKA Works; Wilmington, NC, USA) at 900 RPM for 1 minute. The plate was further centrifuged in an Eppendorf 5810 centrifuge with an A-4-62 swing-bucket rotor (Eppendorf AG, Hamburg, Germany) at 201 g (1000 rpm) for 30 seconds. The plate was then incubated for 90 min with a lid to avoid light exposure to the assay components. After incubation, the fluorescent emission signals at 520 nm and 490 nm channels of individual wells were measured with a PHERAstar FS plate reader (BMG Labtech; Durham, NC, USA) by using a 340 nm excitation filter, 100 μs delay time, and 200 μs integration time. The TR-FRET fluorescence emission ratio (TR-FRET signal) for each well was presented as 10 000×520 nm/490 nm, which was used directly for curve fitting, or further converted to % Inhibition based on the respective positive and negative controls. The graphic software GraphPad Prism 4.81 (GraphPad Software; La Jolla, CA, USA) was used to generate curves and derive IC50 values of tested peptides or compounds, if applicable.
TR-FRET inhibitory activity characterization of a panel of PCF11 peptides against the interaction between GST-MAGEA11 MHD and FAM-PCF11_4 was performed as follows. In a 20 μl/well assay volume, dilutions of PCF11_1 to PCF11_8 peptides (concentrations ranged from 3.1 nM to 100 μM for peptides PCF11_4, PCF11_5, PCF11_6 and PCF11_8 in a 1-to-2 dilution pattern for 16 concentration levels, and ranged from 48.9 nM to 100 μM for peptides of PCF11_1, PCF11_2, PCF11_3 and PCF11_7 in a 1-to-2 dilution pattern for 12 concentration levels), 200 nM FAM-PCF11_4, 5 nM Tb-anti-GST and 5 nM GST-MAGEA11 were mixed together and incubated for 90 min before the TR-FRET signal for each well was measured. The final DMSO concentration was 1.1% (v/v). […] The signal of each peptide-treated well (Signalpeptide) was normalized to the positive and negative controls to derive % inhibition of the peptide at a specific concentration with equation 1. Where applicable, the % Inhibition data were fit into a Sigmoidal dose response equation to derive IC50 values.
TR-FRET screen for identifying MAGEA11 small molecule inhibitors was performed as follows.

Row | SMILES | IC50 [µM]
1 | Cc1cccc(NC2=C(N)C(=O)c3ccccc3C2=O)c1 [SJ000024934-1] | 69.9
2 | COc1cccc(Oc2ccc3c(NCCCNCc4cc(F)ccc4OC)ccnc3c2)c1 [SJ000311217-1] | 36.8
3 | Nc1nc(Nc2ccc(Cl)c(Cl)c2)nc2ccccc12 [SJ000201376-1] | 69.9
4 | CCn1c2ccccc2c2cc(CNCC(C)O)ccc21 (stereo not shown) [SJ000505727-1] | 69.9
5 | CCCCn1c(=O)[nH]c(=O)c2c1nc(-c1ccc(OCC)c(OC)c1)n2CCOC [SJ000427387-1] | 69.9
6 | CCCCOC(=O)Cn1cnc2cc(-c3ccc(OC)cc3)sc2c1=O [SJ000399852-1] | 69.9
7 | CCCn1c(=O)c2nc(-c3ccc(OCC(=O)Nc4ccc(C#N)cc4)cc3)[nH]c2n(CCC)c1=O [SJ000287997-2] | 69.9
8 | COc1ccc(Cl)cc1Nc1nc(N)c2ccccc2n1 [SJ000200999-1] | 69.9
9 | FC(F)(F)Oc1cccc(CNCCCNc2ccnc3cc(Cl)ccc23)c1 [SJ000521022-2] | 69.9
10 | Cc1cc(C)nc(Nc2nc(N)c3ccccc3n2)n1 [SJ000189299-1] | 69.9
11 | FC(F)(F)c1cccc(CNCCCNc2ccnc3cc(Cl)ccc23)c1 [SJ000521024-1] | 69.9
12 | CCn1c2ccccc2c2cc(CN3CCc4nnc(CNC(=O)c5ccccc5)n4CC3)ccc21 [SJ000307948-1] | 69.9
13 | Cc1ccc(Nc2nc(N)c3ccccc3n2)cc1Cl [SJ000201287-1] | 69.9
14 | COc1ccc(-c2cc3ncn(CC(=O)NCc4ccccc4C)c(=O)c3s2)cc1 [SJ000455215-1] | 69.9
15 | CCCCCn1c(-c2ccc(F)c(Br)c2)nc2c1c(=O)[nH]c(=O)n2CCCC [SJ000378900-1] | 2.64
16 | COc1ccccc1Nc1nc(N)c2ccccc2n1 [SJ000192505-1] | 69.9
17 | CCCn1c(=O)[nH]c(=O)c2c1nc(-c1cccc(Br)c1)n2CCOC [SJ000431389-1] | 69.9
18 | C=CCn1c(=O)c2c(nc(-c3ccc(S(=O)(=O)O)cc3)n2C)n(C)c1=O [SJ000287614-4] | 75.1
19 | CN(C)CCCNCc1ccc2[nH]c3ccccc3c2c1 [SJ000054243-1] | 69.9
20 | COc1cccc(-c2nc(S(=O)(=O)c3ccc(C)cc3)c(N3CCOCC3)o2)c1 [SJ000038123-1] | 17.4
21 | O=C(O)c1cccc(NC2=C(Cl)C(=O)c3ccccc3C2=O)c1 [SJ000022282-2] | 69.9

Row | SMILES | IC50 [µM]
22 | CCCCn1c(=O)[nH]c(=O)c2c1nc(-c1ccc(OC(F)(F)C(F)C(F)(F)F)cc1)n2O (stereo not shown) [SJ000378966-1] | 69.9
23 | Cc1ccc(C2Nc3ccccc3C(=O)N2CCCN2CCOCC2)cc1 (stereo not shown) [SJ000803768-1] | 65.9
24 | COCCn1c(-c2ccc(F)cc2)nc2c1c(=O)[nH]c(=O)n2CC(C)C [SJ000422648-1] | 69.9
25 | CC(C)(C)c1ccc(Oc2ccc3c(NCCCNCc4cccc5c4OCO5)ccnc3c2)cc1 [SJ000311236-1] | 8.67
26 | NC1=C(Nc2ccc(Cl)cc2)C(=O)c2ccccc2C1=O [SJ000562630-1] | 53.8
27 | COc1cccc(CNCCCNc2ccnc3cc(-c4cc(C(F)(F)F)cc(C(F)(F)F)c4)ccc23)c1O [SJ000311271-1] | 69.9
28 | O=C1c2ccccc2NC(c2ccc(F)c(Br)c2)N1CCCN1CCOCC1 (stereo not shown) [SJ000803764-1] | 68
29 | CCC(CC)c1ccc2c(NCCCNCc3cc(F)ccc3OC)ccnc2c1 [SJ000311269-1] | 43
30 | CC(C)c1ccc(-c2nc3c(=O)n(C)c(=O)n(C)c3[nH]2)cc1 [SJ000203904-1] | 69.9
31 | CCCN1C(=O)c2ccccc2NC1c1ccc2c(c1)OCO2 (stereo not shown) [SJ000288667-1] | 69.9
32 | C=CCn1c(=O)c2c(nc(-c3ccccc3)n2C)n(C)c1=O [SJ000832270-1] | 85.8
33 | CCCn1c(=O)[nH]c(=O)c2c1nc(-c1ccc(F)c(F)c1)n2CCOC [SJ000460758-1] | 69.9
34 | COc1ccc(CN2C(=O)c3ccccc3NC2c2ccc(OC)cc2)cc1 (stereo not shown) [SJ000510744-1] | 69.9
35 | COc1cc2nc(N(C)CCCNC(=O)C3CCCO3)nc(N)c2cc1OC (stereo not shown) [SJ000286094-9] | 36.2
36 | COc1ccc(-c2ccc3c(NCCCNCc4cccc(OC)c4O)ccnc3c2)cc1 [SJ000311295-1] | 69.9
37 | CCC(CC)c1ccc2c(NCCCNCc3cccc4c3OCO4)ccnc2c1 [SJ000311268-1] | 28.9
38 | C=C(C)CN(CC)C(=O)Cn1cnc2cc(-c3ccc(OC)cc3)sc2c1=O [SJ000429044-1] | 69.9
39 | COc1ccc(OC(F)(F)F)cc1CNCCCNc1ccnc2cc(C(F)(F)F)ccc12 [SJ000521063-1] | 69.9
40 | COc1ccc(OC(F)(F)F)cc1CNCCCNc1ccnc2cc(Cl)ccc12 [SJ000521035-1] | 69.9
41 | Fc1ccc(CNCCCNc2ccnc3cc(Cl)ccc23)cc1 [SJ000523062-1] | 69.9
42 | Cc1ccc(S(=O)(=O)N2CCN(C3=C(Cl)C(=O)c4ccccc4C3=O)CC2)cc1 [SJ000021282-1] | 10.4

same assay, conditions: Table 5, dose response TR-FRET screening of 59 quinoline compounds against MAGE-A11:PCF11; read-out: TR-FRET IC50

Row | SMILES | IC50 [µM]
43 | FC(F)(F)c1ccc2c(NCCCNCc3csc4ccccc34)ccnc2c1 [SJ000521061-1] | > 70
44 | FC(F)(F)c1ccc2c(NCCCNCc3ccc[nH]3)ccnc2c1 [SJ000361105-1] | 33
45 | c1coc(CNCCCNc2ccnc3cc(-c4ccc5c(c4)OCO5)ccc23)c1 [SJ000311290-1] | > 70
46 | CCCN(CCCNc1ccnc2cc(Cl)ccc12)Cc1c(C)cc(C)cc1C [SJ000522749-1] | > 70
47 | Clc1ccc2c(NCCCCN(Cc3ccccc3)Cc3csc4ccccc34)ccnc2c1 [SJ000520446-1] | > 70
48 | CC(C)(C)CCN(CCCCNc1ccnc2cc(Cl)ccc12)Cc1ccccc1 [SJ000357537-2] | > 70

same assay, conditions: Table 8, representative compounds; read-out: TR-FRET IC50

Row | SMILES | IC50 [µM]
49 | COc1cc(NC(C)CCCN)c2ncccc2c1 (stereo not shown) [SJ000285544] | 19
50 | FC(F)(F)Oc1cccc(CNCCCNc2ccnc3cc(Cl)ccc23)c1 [SJ000521022] | 69.9
51 | COc1cccc(CNCCCNc2ccnc3cc(-c4ccc(C(F)(F)F)cc4)ccc23)c1O [SJ000311279] | 9.52
52 | COc1ccc(F)cc1CNCCCNc1ccnc2cc(CCC(C)C)ccc12 [SJ000311249] | 69.9
53 | Cc1cccc(CNCCCNc2ccnc3cc(Cl)ccc23)c1 [SJ000523066] | 69.9
54 | FC(F)(F)c1ccc2c(NCCCNCc3c4ccccc4cc4ccccc34)ccnc2c1 [SJ000361126] | 69.9
55 | c1cc(CNCCCNc2ccnc3cc(C4CCCCC4)ccc23)c2c(c1)OCO2 [SJ000311264] | 23.7
56 | COc1cccc(CNCCCNc2ccnc3cc(Cc4cccc(C(F)(F)F)c4)ccc23)c1O [SJ000311299] | 27.5
57 | COc1ccccc1Oc1ccc2c(NCCCNCc3cccc(OC)c3O)ccnc2c1 [SJ000311211] | 69.9
58 | c1cc(CNCCCNc2ccnc3cc(-c4cccc5ccccc45)ccc23)c2c(c1)OCO2 [SJ000311276] | 31.2
59 | CCc1ccc(CNCCCNc2ccnc3cc(C(F)(F)F)ccc23)cc1 [SJ000521067] | 40.9
60 | COc1ccc(F)cc1CNCCCNc1ccnc2cc(C3CCCCC3)ccc12 [SJ000311265] | 24.2
61 | COc1ccc(F)cc1CNCCCNc1ccnc2cc(-c3ccccc3)ccc12 [SJ000311285] | 28.2
